Results taken from the supplement of paper PMC10307832.

Columns and labels:
Test in all cases: relative viability (nuclei count vs DMSO), 5 days (fraction); higher = more cells survive
[1] = compound: C#Cc1cccc(Nc2ncnc3cc(OCCOC)c(OCCOC)cc23)c1 [Erlotinib] + O=C(c1cc(Cc2n[nH]c(=O)c3ccccc23)ccc1F)N1CCN(C(=O)C2CC2)CC1 [Olaparib] (partner 8 µM)
Summary of the method: (§1)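 A single step with final 0.05% Triton X-100, 1% formaldehyde and 1 ug/ml Hoechst fixed the cells and stained nuclei 5 days after treatment. Lung cancer cell lines in 1536-well plates had been treated by pin tool the day after seeding with one drug alone or a fixed anchor-drug dose plus five library-drug doses (not always all listed) in √10 steps, and nuclei were counted on 4× images. Relative viability is the ratio of nuclei in treated wells to nuclei in vehicle wells, taken as the median of duplicate plates.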

[2] = compound: O=C(Nc1c[nH]nc1-c1nc2ccc(CN3CCOCC3)cc2[nH]1)NC1CC1 [AT9283] + Cc1nc(NC(=O)N2CCC[C@H]2C(N)=O)sc1-c1ccnc(C(C)(C)C(F)(F)F)c1 [Alpelisib] (partner 2 µM)
Summary of the method: as §1

[3] = compound: O=C(Nc1c[nH]nc1-c1nc2ccc(CN3CCOCC3)cc2[nH]1)NC1CC1 [AT9283] + C[C@@H](Oc1cc(-c2cnn(C3CCNCC3)c2)cnc1N)c1c(Cl)ccc(F)c1Cl [Crizotinib] (partner 1 µM)
Summary of the method: as §1

[4] = compound: O=C(Nc1c[nH]nc1-c1nc2ccc(CN3CCOCC3)cc2[nH]1)NC1CC1 [AT9283] + O=C(CCCCCCC(=O)Nc1ccccc1)NO [Vorinostat] (partner 1 µM)
Summary of the method: as §1

[5] = compound: O=C(Nc1c[nH]nc1-c1nc2ccc(CN3CCOCC3)cc2[nH]1)NC1CC1 [AT9283] + C[C@]1(O)C[C@@H](c2nc(-c3ccc4ccc(-c5ccccc5)nc4c3)c3c(N)nccn32)C1 [Linsitinib] (partner 1 µM)
Summary of the method: as §1

| Cell Line | relative viability ([1]; first compound 0.02 µM) | relative viability ([1]; first compound 0.2 µM) | relative viability ([1]; first compound 0.6325 µM) | relative viability ([1]; first compound 2 µM) | relative viability ([2]; first compound 0.003 µM) | relative viability ([2]; first compound 0.03 µM) | relative viability ([2]; first compound 0.09487 µM) | relative viability ([2]; first compound 0.3 µM) | relative viability ([3]; first compound 0.003 µM) | relative viability ([3]; first compound 0.03 µM) | relative viability ([3]; first compound 0.09487 µM) | relative viability ([3]; first compound 0.3 µM) | relative viability ([4]; first compound 0.003 µM) | relative viability ([4]; first compound 0.03 µM) | relative viability ([4]; first compound 0.09487 µM) | relative viability ([4]; first compound 0.3 µM) | relative viability ([5]; first compound 0.003 µM) | relative viability ([5]; first compound 0.03 µM) | relative viability ([5]; first compound 0.09487 µM) | relative viability ([5]; first compound 0.3 µM) |
| --- | --- | --- | --- | --- | --- | --- | --- | --- | --- | --- | --- | --- | --- | --- | --- | --- | --- | --- | --- | --- |
| HCC-44 | 0.94 | 0.984 | 1.05 | 0.947 | 0.784 | 0.795 | 0.2 | 0.116 | 0.775 | 0.634 | 0.457 | 0.211 | 1.07 | 1.05 | 0.571 | 0.567 | 0.628 | 0.745 | 0.148 | 0.14 |
| HCC-78 | 0.877 | 0.634 |  | 0.728 | 0.286 | 0.275 | 0.165 | 0.18 | 0.328 | 0.272 | 0.213 | 0.189 | 0.384 | 0.385 | 0.258 | 0.229 | 0.475 | 0.41 | 0.172 | 0.185 |
| HCC-366 | 0.331 | 0.359 | 0.353 | 0.242 | 0.48 | 0.17 | 0.122 | 0.0346 | 0.547 | 0.179 | 0.105 | 0.0338 | 0.292 | 0.2 | 0.0353 | 0.0463 | 0.71 | 0.319 | 0.0197 | 0.0206 |
| HCC-827 | 0.243 | 0.147 | 0.149 | 0.139 | 0.96 | 0.856 | 0.349 | 0.212 | 0.91 | 0.808 | 0.41 | 0.283 | 0.612 | 0.36 | 0.363 | 0.248 | 0.995 | 0.843 | 0.463 | 0.371 |
| HOP-62 | 0.446 | 0.307 | 0.508 | 0.415 | 1.11 | 0.991 | 0.207 | 0.219 | 1.13 | 0.747 | 0.285 | 0.167 | 0.637 | 0.262 | 0.183 | 0.186 | 0.927 | 0.721 | 0.178 | 0.173 |
| IA-LM | 0.757 |  |  | 0.905 | 0.891 | 0.418 | 0.199 | 0.0959 | 0.846 | 0.261 | 0.0839 | 0.132 | 0.927 | 0.624 | 0.144 | 0.111 | 0.626 | 0.432 | 0.311 | 0.102 |
| LC-2-ad | 0.709 | 0.785 | 0.692 | 0.625 | 0.933 | 0.319 | 0.106 | 0.107 | 0.44 | 0.275 | 0.288 | 0.238 | 0.696 | 0.251 | 0.199 | 0.157 | 0.847 | 0.257 | 0.116 | 0.112 |
| LCLC-97TM1 | 0.45 | 0.352 | 0.508 | 0.321 | 0.198 | 0.151 | 0.11 | 0.111 | 0.273 | 0.157 | 0.128 | 0.121 | 0.734 | 0.15 | 0.128 | 0.0905 | 0.184 | 0.156 | 0.107 | 0.0936 |
| NCI-H522 | 0.614 | 0.553 | 0.61 | 0.422 |  |  |  |  |  |  |  |  | 0.782 | 0.549 | 0.527 | 0.376 |  |  |  |  |
| NCI-H1299 | 0.988 | 1.01 | 0.959 | 1 | 1.08 | 1.04 | 0.476 | 0.352 | 1.01 | 0.475 | 0.339 | 0.346 |  |  |  |  | 0.888 | 0.705 | 0.402 | 0.256 |
| NCI-H1395 | 0.465 | 0.43 | 0.426 | 0.432 | 1 | 0.804 | 0.409 | 0.431 |  |  |  |  | 0.579 | 0.494 | 0.337 | 0.299 | 1.08 | 0.901 | 0.373 | 0.383 |
| NCI-H1563 |  |  |  |  | 1.08 | 0.81 | 0.732 | 0.628 | 0.955 | 0.713 | 0.686 | 0.658 |  |  |  |  | 1.26 | 0.892 | 0.832 | 0.757 |
| NCI-H1648 | 1.4 | 0.517 | 0.692 | 0.442 |  |  |  |  |  |  |  |  | 0.378 | 0.468 | 0.325 | 0.308 |  |  |  |  |
| NCI-H1650 | 0.821 | 0.685 | 0.61 | 0.644 |  |  |  |  | 1.01 | 0.596 | 0.267 | 0.217 | 0.608 | 0.487 | 0.375 | 0.194 |  |  |  |  |
| NCI-H1703 | 0.48 | 0.512 | 0.43 | 0.389 | 0.361 | 0.214 | 0.174 | 0.223 | 0.694 | 0.401 | 0.211 | 0.225 |  |  |  |  | 0.985 | 0.284 | 0.258 | 0.223 |
| NCI-H1792 | 0.407 | 0.299 | 0.464 | 0.383 | 0.633 | 0.82 | 0.565 | 0.242 | 0.933 | 0.993 | 0.984 | 0.811 |  |  |  |  | 0.492 | 0.629 | 0.192 | 0.117 |
| NCI-H1793 | 0.819 | 0.391 | 0.686 | 0.436 | 0.642 | 0.871 | 0.363 | 0.254 |  |  |  |  | 0.709 | 0.349 | 0.278 | 0.281 | 0.941 | 0.859 | 0.339 | 0.209 |
| NCI-H2170 | 0.651 | 0.602 | 0.476 | 0.309 | 0.806 | 0.638 | 0.205 | 0.217 | 1.22 | 0.73 | 0.236 | 0.198 | 0.765 | 0.514 | 0.272 | 0.13 |  |  |  |  |
| NCI-H2342 | 0.378 | 0.425 | 0.462 | 0.383 |  |  |  |  |  |  |  |  | 0.804 | 0.576 | 0.59 | 0.409 |  |  |  |  |
| SW 900 | 0.907 | 0.846 | 0.84 |  |  |  |  |  |  |  |  |  | 0.424 | 0.358 | 0.298 | 0.199 |  |  |  |  |
